Source: US10392630B2, “Plants having increased tolerance to herbicides” (BASF AGRO B.V., priority 2013, dated 2019)
Where a chain is given by its changes, count along the chain named.

Experiments:
Assay in all cases: biochemical
[1] = target: T1, Amaranthus mutant PPO (AMARE) (Amaranthus tuberculatus, UniProt Q0NZW9, F420I/R128L)
T1 sequence (Q0NZW9 1-534 R128L/F420I): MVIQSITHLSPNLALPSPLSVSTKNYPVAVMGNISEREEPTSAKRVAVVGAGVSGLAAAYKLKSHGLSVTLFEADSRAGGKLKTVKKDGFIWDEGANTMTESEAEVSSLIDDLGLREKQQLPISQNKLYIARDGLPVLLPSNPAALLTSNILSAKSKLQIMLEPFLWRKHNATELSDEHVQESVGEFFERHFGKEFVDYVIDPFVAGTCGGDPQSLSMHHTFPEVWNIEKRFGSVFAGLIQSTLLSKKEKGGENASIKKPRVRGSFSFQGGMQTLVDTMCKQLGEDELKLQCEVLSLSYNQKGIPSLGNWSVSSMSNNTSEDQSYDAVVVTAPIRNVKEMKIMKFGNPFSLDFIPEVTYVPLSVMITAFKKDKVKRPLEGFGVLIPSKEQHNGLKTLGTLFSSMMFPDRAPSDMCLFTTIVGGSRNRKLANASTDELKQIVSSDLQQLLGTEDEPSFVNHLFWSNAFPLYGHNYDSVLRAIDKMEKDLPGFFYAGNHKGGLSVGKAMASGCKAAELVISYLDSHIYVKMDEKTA

[2] = target: T2, Amaranthus mutant PPO (AMARE) (Amaranthus tuberculatus, UniProt Q0NZW9, F420M/R128L)
T2 sequence (Q0NZW9 1-534 R128L/F420M): T1 sequence (Q0NZW9 1-534 R128L/F420I) with I420M

[3] = target: T3, Amaranthus mutant PPO (AMARE) (Amaranthus tuberculatus, UniProt Q0NZW9, F420V/R128A)
T3 sequence (Q0NZW9 1-534 R128A/F420V): T1 sequence (Q0NZW9 1-534 R128L/F420I) with L128A, I420V

[4] = target: T4, Amaranthus mutant PPO (AMARE) (Amaranthus tuberculatus, UniProt Q0NZW9, F420L)
T4 sequence (Q0NZW9 1-534 F420L): T1 sequence (Q0NZW9 1-534 R128L/F420I) with L128R, I420L

[5] = target: T5, Amaranthus mutant PPO (AMARE) (Amaranthus tuberculatus, UniProt Q0NZW9, R128I)
T5 sequence (Q0NZW9 1-534 R128I): T1 sequence (Q0NZW9 1-534 R128L/F420I) with L128I, I420F

| SMILES | IC50 [1] | IC50 [2] | IC50 [3] | IC50 [4] | IC50 [5] |
| --- | --- | --- | --- | --- | --- |
| C#CCN1C(=O)C(F)(F)Oc2cc(F)c(-n3c(=O)n(C)c(=S)n(C)c3=O)cc21 [BAS 850H] | 1230 nM | 246 nM | 25 nM | – | – |
| CC(C)N(C)S(=O)(=O)NC(=O)c1cc(-n2c(=O)cc(C(F)(F)F)n(C)c2=O)c(F)cc1Cl [saflufenacil] | > 10000 nM | > 10000 nM | > 10000 nM | 7200 nM | 365 nM |
